This passage reports Relative product results from patent publication US10408837B2 (priority 2013, dated 2019).

Several values for one entry are separate records, joined by “and”; a condition that tells them apart may be missing. Equal entries are not always repeated.

The test has as its target BoNT/E (Clostridium botulinum, UniProt Q00496).

Regarding IIIGNLGNEIDTQNRQIDRIMAKAKSKKR [Pep-52], the Relative product is 581 and 511.
